Source: article PMC3421038 (The Pediatric infectious disease journal, 2012)
Like-named read-outs stand apart in the source and are kept apart here.

Legend:
[1] = human, in vivo; cited from earlier work
[2] = human, in vivo, iv, 6 mg/kg
[3] = test system: hepatic cytochrome P450 enzyme system; settings: cited from earlier work
[4] = in vivo, cited from earlier work
[5] = human, in vivo, cited from earlier work
[6] = in vivo

AUC(0-t) [2]: 262 µg·h/mL
Cmax [2]: 25500 ng/mL
clearance [2]: 0.35 mL/min/kg
half-life [2]: 6.2 h
CPK value after the dose of daptomycin [6]: 86 IU/L
CPK value before the dose of daptomycin [6]: 132 IU/L
calcium level after the daptomycin dose [6]: 9.7
calcium level before the daptomycin dose [6]: 9.3
SMILES: CCCCCCCCCC(=O)N[C@@H](Cc1c[nH]c2ccccc12)C(=O)N[C@H](CC(N)=O)C(=O)N[C@@H](CC(=O)O)C(=O)N[C@@H]1C(=O)NCC(=O)N[C@@H](CCCN)C(=O)N[C@@H](CC(=O)O)C(=O)N[C@H](C)C(=O)N[C@@H](CC(=O)O)C(=O)NCC(=O)N[C@H](CO)C(=O)N[C@@H]([C@H](C)CC(=O)O)C(=O)N[C@@H](CC(=O)c2ccccc2N)C(=O)O[C@@H]1C [daptomycin]
patients with cellulitis as serious adverse event [1]: 1.3%
patients with elevation of CPK concentrations [1]: 2.1%
renal toxicity [1]: does not cause renal toxicity
effect on the hepatic cytochrome P450 enzyme system [3]: does not have an effect
mean exposure (AUCinf) ([4]; 4 mg/kg): 417 µg·h/mL
administered dose excreted within 24 hours as intact drug [4]: 50%
kinetics (dose linearity) [4]: linear kinetics
mean exposure (AUCinf) ([5]; 8 mg/kg): 429 µg·h/mL
mean exposure (AUCinf) ([5]; 10 mg/kg): 550 µg·h/mL
respiratory rate, temperature, heart rate, or mean blood pressure during the daptomycin infusion ([6]; 6 mg/kg): No significant changes
adverse events classified as serious adverse events ([6]; iv, 6 mg/kg): Five
adverse events related to study drug ([6]; iv, 6 mg/kg): None
adverse events reported (number of events) ([6]; iv, 6 mg/kg): 34
subjects with adverse events ([6]; iv, 6 mg/kg): 55%
